Test results as given in patent US8530434B2, “Nitroxide free radical synergized antineoplastic agents” (The Trustees of California State University, priority 2006, dated 2013).
Entries after “also recorded” stand apart in the source; their conditions may differ.

Assays:
[1] = test system: short single strand DNA units comprising of 3′-ATCGT-5′; experiment: 1H and 31P NMR study of interaction with short single strand DNA; assay type: binding; details: 1:1 molar ratio with DNA in DMSO-d6, 600 MHz NMR
From the text: (§1) We did the ^1H and ^31P NMR experiments at a 600 MHz NMR spectrometer for all three samples.

[2] = test system: MCF-7, human breast cancer cells and KB, human liver cancer cells; experiment: LDH measurement of cytotoxicity; details: for % cytotoxicity: LDH assay, 72 hours incubation, same conditions and same concentrations, rank among the four treatments, cell line not specified
Method: MCF-7, human breast cancer cells and KB, human liver cancer cells were maintained in an RPMI 1640 medium, which was supplemented with 10% (v/v) heat-inactivated FBS and 1% (v/v) penicillin-streptomycin (100 U/mL penicillin G and 100 μg/mL streptomycin). The cells were incubated and then allowed to grow into a monolayer at a Petri dish at 37° C. in 5% CO2 and 90% relative humidity. The cells were detached by trypsinisation. Specifically, to detach the monolayer of cells, the medium was removed from the cell culture dish and the cells were washed by PBS buffer solution. Then 1 mL of the enzyme of trypsin was transferred to the cell dish and then the dish was incubated for 3 min. After the incubation, we transferred 4 mL of the RPMI 1640 medium to the cell dish and pipetted the cell suspension up and down to mix them well. The cell suspension was examined by inverted phase contrast microscope to make sure cells were separated into a single cell suspension. We transferred the cell suspension to a 10 mL-tube and centrifuged it to separate cell pellet from the medium. The cells were washed twice in the RPMI 1640 medium by centrifugation at 300×g for 5 min, and then the washed cells were re-suspended in 10 mL of medium. Cell number and viability were determined by using a dye of trypan blue, a special counting chamber, the hemocytometer and microscope. The cell density was calculated by the formula, cell concentration=(N1+N2+N3+N4+N5)×4×10^3 cells/mL, where N1 to N5 denote the counting numbers in the chamber. The cell suspension was diluted to a final concentration of 100,000 cells/mL in the RPMI 1640 medium.
The cells were initially seeded in a 96-well plate with a cell density of 10,000 cells per well by transferring 100 μL of 100,000 cells/mL suspension to each well using a multi-pipette. The 96-well plate was incubated for 24 hours at 37° C. in a humidified, 5% CO2 atmosphere. After incubation of 24 h, the growth medium was removed and replaced with 100 μL of fresh medium with different concentrations of drugs in 3 repeats.
Performed serial two-fold dilution from Row H to Row A. Use extra column as the negative control containing 100 μL of the medium and cells only. Before the drug solutions were administered, removed the growth medium from each well and then replace 100 μL of each drug solution. Each concentration had 3 repeats. Incubate the plate for 72 hours.
10 μl of Lysis Solution was added from row A to H, and incubated for 45 minutes in a humidified chamber at 37° C., under 5% CO2.
50 μl supernatant was transferred from all wells to a fresh 96-well flat bottom enzymatic assay plate. […] 50 μl Stop Solution was added to each well, and the absorbances were recorded at a wavelength of 490 nm within one hour after adding the stop solution.

[3] = Solubility in D2O (sample preparation for NMR)
From the text: as §1

CC1(C)CC(O)CC(C)(C)N1[O] [TEMPOL, 4-hydroxy-2,2,6,6-tetramethylpiperidine-N-oxyl]
interaction with DNA (changes of 1H and 31P NMR spectra) [1]: interacts with DNA
% cytotoxicity [2]: the least; also recorded: very low % cytotoxicity

CC1(C)CC(OC(=O)CCCc2ccc(N(CCCl)CCCl)cc2)CC(C)(C)N1[O] [chlorambucil-TEMPOL adduct]
solubility in D2O [3]: weakly soluble
interaction with DNA (changes of 1H and 31P NMR spectra) [1]: interact with the DNA collaboratively
% cytotoxicity [2]: the most % cytotoxicity
potency compared with co-administration of the two drugs ([2]; summary statement): higher potency than mere co-administration of the two drugs

O=C(O)CCCc1ccc(N(CCCl)CCCl)cc1 [chlorambucil]
solubility in D2O [3]: weakly soluble
interaction with DNA (changes of 1H and 31P NMR spectra) [1]: interaction of the alkylating agent with DNA
% cytotoxicity [2]: the third
